Measured values: patent publication US20020132019A1, “Sterol fractions of Nigella sativa L. seeds” (priority 2000, published 2002)

Legend:
Format in all cases: in vivo
[1] = tested on: histamine-induced bronchospasm in guinea pigs; experiment: Prophylactic anti-allergic effect: protection against histamine aerosol (1%) induced bronchospasm; conditions: 239 mg/kg i.p.
Experimental: The prophylactic anti-allergic effects of the Nigella sativa L. sterol fraction were evaluated in guinea pigs (300-400 grams). Animals were divided into 5 groups (10 animals each) and treated i.p. As follows:
First: Animals treated by saline.
Second: Animals treated by diphenhydramine (239 mg/kg/day).
Third: Animals treated by the Nigella sativa L. sterol fraction (50 mg/kg).
Animals treated by the Nigella sativa L. sterol fraction (100 mg/kg).
Fifth: Animals treated by the Nigella sativa L. sterol fraction (150mg/kg).
Animals were exposed 30 minutes after their i.p. Injection of diphenhydramine and the Nigella sativa L. sterol fraction (50,100 and 150 mg/kg) to histamine aerosol (1% for 3 minutes to induce bronchospasm or tachypnea) (Armitage et al, Br. J. Pharmacol., 16:59-76 (1961)). The percent protection against bronchospasm and loss of rightening after 30, 60 and 90 minutes was calculated (Dawson and Sweatman, Br. J. Pharmacol, 71:387-398 (1980)).

[2] = tested on: guinea pigs exposed to histamine aerosol (0.25%); experiment: Prophylactic anti-asthmatic effect: pre-convulsive time on histamine aerosol (0.25%); conditions: 50 :g/kg, treated for 21 days, histamine 0.25% aerosol
Experimental: This example explains an in vivo study to evaluate the prophylactic (protective) anti-asthmatic effect of the Nigella sativa L. sterol fraction. The prophylactic anti-asthmatic effect was evaluated in vivo by measurement of the pre-convulsive time in guinea pigs exposed to histamine aerosol (0.25%).
Guinea pigs were divided into three groups with 8 animals per group. The first group received saline injections to serve as negative control. The second group received ketotifen, which is the standard treatment to serve as positive control. The third group received 200 mg/kg each of the Nigella sativa L. sterol fraction of the present invention.
Animals in all groups were treated for 21 days after which time they were exposed to histamine (0.25 %) aerosol and the preconvulsive time was recorded.

[3] = tested on: ova albumin sensitized guinea pigs; experiment: Tachypnea protective effect in ova albumin sensitized animals; conditions: 50 :g/kg, treated for 21 days, ova albumin inhalation
Experimental: This experiment was an in vivo study to evaluate the tachypnea (protective) effect of the Nigella sativa L. sterol fraction of the present invention. The second protocol involved sensitized animals. Animals were sensitized by injecting ova albumin in two doses 100 mg. each (S.C. and I.P., simultaneously). Animals were resensitized 15 days later. Guinea pigs were divided into three groups with 8 animals per group. The first group received a saline injection to serve as negative control. The second group received ketotifen which is the standard treatment to serve as positive control. The third group received 200 mg/kg each of the Nigella sativa L. sterol fraction of the present invention. Animals in all groups were treated for 21 days following which they were exposed to ova albumin inhalation and time to onset of tachypnea was recorded as shown in the table below.

SMILES	% protection 30 minutes ([1]; 30 minutes) [%]	% protection 60 minutes ([1]; 60 minutes) [%]	% protection 90 minutes ([1]; 90 minutes) [%]	% of Prophylaxis (Protection) [2] [%]	% of Prophylaxis [3] [%]
CN(C)CCOC(c1ccccc1)c1ccccc1 [Diphenhydramine, diphenhydramine]	100	100	90	–	–
CN1CCC(=C2c3ccccc3CC(=O)c3sccc32)CC1 [ketotifen]	–	–	–	82.85	44.4
